The subject of the data set is MDCK-MDR1 cells. The data set can be described thus: MDCK-MDR1 permeability assay. It is filed as in vitro ADME. The settings on record: MDCK-MDR1 cells; test compound 3 μM; 2 hours at 37 degrees C; apical to basolateral. The procedure, abridged: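 Receiver and donor compartments were analysed by LC-MS/MS after a 2 h incubation at 37 °C of 3 μM compound in HBSS on MDCK-MDR1 monolayers, run in both directions with Lucifer Yellow (100 μM) as integrity marker. Apparent permeability came from translocation rate, insert area and initial concentration; B→A/A→B Papp gave the efflux ratio, alongside percent recovery.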

This note sets out measurements from patent US12006330B2, “Substituted macrocyclic compounds and related methods of treatment” (Alkermes, Inc., priority 2020, dated 2024).

Take `Cc1ncnc2c1[C@H]1CC[C@H](CC1)OCC1[C@@H](NS(C)(=O)=O)CCCN1C(=O)CO2` (stereo in doubt) [Compound 27]: the “Papp A → B (10^−6 cm/s)” value is given as 0.33 10^−6 cm/s.
